The term IC50 denotes the concentration needed to halve the response being measured. One may read the MIC as the lowest concentration that inhibits growth of the organism.

≈ marks a conversion by molar mass, not a printed value. Read-outs that look alike come from different tables or passages of the source.

Here are results for 1 molecule from patent US20080050759A1, “Screening Assay for Anti-Bacterial Compounds” (Bayer Healthcare AG, priority 2003, published 2008).

The subject of test [1] is S30 extracts derived from all three Gram-positives. In words: In vitro coupled T/T assay, for all three Gram-positive S30 extracts. To be noted: at high concentrations. In kind it is biochemical, S. aureus, S. pneumoniae, E. faecalis.
Procedure: To validate the in vitro coupled T/T assay for screening of potential inhibitors of transcription and translation several antibiotics of known mode of action were tested.
Test [2] relates to S30 extracts from S. aureus 133. Nature of the test: Gram-positive in vitro coupled transcription/translation (T/T) assay, S. aureus S30 extract. It is filed as biochemical. The method, then:
A procedure similar to the preparation of S30 extracts described by Murray et. al. (2) was used for S. aureus. Brain heart infusion (BHI) medium (6 l) was inoculated with 250 ml overnight culture of S. aureus 133 grown in BHI at 37° C. with agitation (170 rpm). Cells were cultured at 37° C. until an OD595nm of 2.5 was reached prior to centrifugation at 6000×g for 15 min at 4° C. Pellets were washed once with 500 ml cold S30-buffer A (10 mM Tris-acetate pH 8.0, 14 mM Mg-acetate, 1 mM DTT, 1 M KCl) and once with 250 ml of cold S30-buffer A containing 50 mM KCl. Pellets were frozen for 1 h at −20° C. or overnight at −70° C., thawed on ice and resuspended to a final volume of 99 ml buffer B (10 mM Tris-acetate pH 8.0, 20 mM Mg-acetate, 1 mM DTT, 50 mM KCl). A 1.5 ml aliquote of lysostaphin (0.8 mg/ml) in buffer B was added to each of three centrifuge tubes and 33 ml of the cell suspension were added. Samples were incubated at 37° C. for 1 h with gentle agitation prior to the addition of 150 μl 0.5 M DTT. Lysed cells were centrifuged for 30 min at 30,000×g at 4° C. and the resulting pellet was washed once with 33 ml S30-buffer B. The pooled supernatants were recentrifuged at 30,000×g for 30 min at 4° C. 100 ml of the supernatant were incubated with 25 ml preincubation buffer (670 mM Tris-acetate pH 8.0, 20 mM Mg-acetate, 7 mM Na3-PEP, 7 mM DTT, 5.5 mM ATP, 70 μM amino acids complete [Promega], 75 μg pyruvate kinase [Sigma]/ml) for 30 min at 37° C. to translate mRNAs. The preincubated supernatants were dialysed at 4° C. against 2 l of 10 mM Tris-acetate pH 8.0, 14 mM Mg-acetate, 1 mM DTT, 60 mM KCl with one buffer change using a Spectra-Por dialysis bag with a molecular weight cutoff of 3,500. The dialysate was gently concentrated by covering the dialysis bag with polyethylene glycol 8,000 powder (Sigma) at 4° C. to a protein concentration of ˜10 mg/ml. The resulting S30 extracts were flash frozen and stored in aliquots at −70° C.
(§1) The final assay volume was 59 μl. Inhibitor (3 μl dissolved in 10% DMSO), plasmid DNA (10 μl of optimal concentration in water pH 8.0) and 46 μl S30 extract [optimal concentration in 23 μl premixed with 23 μl incubation buffer (0.5 M potassium acetate, 87.5 mM Tris/acetate pH 8.0, 67.5 mM ammonium acetate, 50 μg/ml folinic acid, 5 mM DTT, 87.5 mg/ml polyethylene glycol 8000, 5 mM ATP; 1.25 mM of each CTP, GTP and UTP; 0.02 mM amino acids, 50 mM phosphoenolpyruvate trisodium salt, 2.5 mM cyclic AMP, 250 μg of each E. coli tRNA/ml) were added and incubated at 30° C. for 1 h. When using pT7-FF as a template 0.05 μl or 0.1 μl (50 U/μl) T7-RNA-Polymerase (Gibco BRL) were added to the S30 extracts used in the assay. Newly synthesized luciferase was detected by measuring bioluminescence for 60 s in a luininometer after the addition of 50 μl substrate buffer containing luciferine (20 mM Tricine/Cl pH 7.8, 2.67 mM MgSO4, 0.1 mM EDTA, 33.3 mM DTT, 0.27 mM Coenzyme A, 0.47 mM luciferine, 0.53 mM ATP).
MIC (minimal inhibitory concentration) values were determined as described in Example 4. Numbers in square brackets relate to the unit in square brackets as given in the column heading.

Test [3] relates to S30 extracts from S. pneumoniae 1707/4. In words: Gram-positive in vitro coupled transcription/translation (T/T) assay, S. pneumoniae S30 extract. In kind it is biochemical. As to the method: S. pneumoniae 1707/4 was grown overnight at 37° C. on agar plates containing 5% sheep blood under microaerophilic conditions. Cells were collected and inoculated into 4.8 l of BHI medium containing 5% bovine serum prior to cultivation at 37° C. under microaerophilic conditions for 5 h. S30 extracts were prepared as described for S. aureus 133 with some modifications. Cells were harvested and washed by centrifugation at 20,000×g for 15 min. The resulting cell pellet was resuspended in 20 ml buffer B, 3 mg lysozyme were added, incubated for 40 min at 37° C. prior to the addition of 75 μl 0.5 M DTT. The S30 sediment was washed with 8 ml buffer B and 7 ml preincubation buffer were added to the pooled supernatants.
as §1
(§2) The shape of the inhibition profiles is more or less similar for these compounds, in case of Streptomycin the lower IC50 value for S. aureus 133 compared to E. faecalis 27263 can be seen. templates pXyl-FF and pT7-FF with S30 extracts of the indicated bacterial strains. […] MIC (minimal inhibitory concentration) values were determined as described in Example 4. Numbers in square brackets relate to the unit in square brackets as given in the column heading.

The test system of test [4] is S30 extracts from E. faecalis 27263. Nature of the test: Gram-positive in vitro coupled transcription/translation (T/T) assay, E. faecalis S30 extract. In kind it is biochemical. The method, then:
E. faecalis 26273 was grown overnight in 250 ml BHI medium containing 2% bovine serum at 37° C. under microaerophilic conditions. The overnight culture was used to inoculate 4.8 1 BHI medium, cells were incubated at 37° C. under microaerophilic conditions with agitation (170 rpm) until an OD600 nm of ˜1.6 was reached. Preparation of S30 extracts was done as described for S. aureus with the following exceptions. Cells were harvested and washed at 7000×g at 4° C. for 12 min and resuspended in 100 ml S30-buffer B. For cell lysis 15 mg lysozyme resuspended in 1 ml S30-buffer B were added and incubated for 2 h at 37° C. with agitation. To complete cell lysis extracts were passed once through a French Press at 600 psi.
as §1, §2

Test [5] concerns E. faecalis 27263. In words: Minimum inhibitory concentration, micro broth dilution. It is filed as cell-based. To be noted: Enterococcus faecalis, 27263, 24 h. The method, then: (§3) MIC determinations were performed using the micro broth dilution method with an inoculum of 5×10^5 cfu/ml in BHI medium. Growth was read after 24 h of incubation at 37° C. Test compounds were dissolved in dimethyl sulfoxide and diluted to a concentration not higher than 2.5% dimethyl sulfoxide. For S. pneumoniae 1707/4 and E. faecalis 27263 16% bovine serum were added and incubated under microaerophilic conditions.
(Broth dilution looks for growth in wells or tubes with falling amounts of substance.)

The test system of test [6] is S. aureus 133. Described as above. It is filed as cell-based. To be noted: Staphylococcus aureus, 133, 24 h. The method, then:
as §3

For test [7], the system named is S. pneumoniae 1707/4. The test is described as above. It is filed as cell-based. The settings on record: Streptococcus pneumoniae, 1707/4, 24 h. As to the method:
as §3

Setting [8] is: template pT7-FF with T7 RNA polymerase, read-out: IC50.
Where [9] appears, read: template pT7-FF, value in square brackets.
[10] abbreviates: template pXyl-FF, value in square brackets.

In the case of `CN[C@H](CC(C)C)C(=O)N[C@H]1C(=O)N[C@@H](CC(N)=O)C(=O)N[C@H]2C(=O)N[C@H]3C(=O)N[C@H](C(=O)N[C@H](C(=O)O)c4cc(O)cc(O)c4-c4cc3ccc4O)[C@H](O)c3ccc(c(Cl)c3)Oc3cc2cc(c3O[C@@H]2O[C@H](CO)[C@@H](O)[C@H](O)[C@H]2O[C@H]2C[C@](C)(N)[C@H](O)[C@H](C)O2)Oc2ccc(cc2Cl)[C@H]1O` [Vancomycin], the “inhibition in the in vitro coupled T/T assay” value in test [1] is given as “no or only weak inhibition”. For the same molecule, the IC50 is > 34 µM in test [2] (setting [8]); > 50 µg/mL in test [2] (setting [9]); > 67 µM in test [2] (template pXyl-FF, 50% inhibition of in vitro translation of luciferase, read-out: IC50); > 100 µg/mL in test [2] (setting [10]); > 34 µM in test [3] (setting [8]); > 50 µg/mL in test [3] (setting [9]). In addition, the IC50 was > 34 µM in test [4] (setting [8]); > 50 µg/mL in test [4] (setting [9]); > 34 µM in test [4] (template pXyl-FF, read-out: IC50); > 50 µg/mL in test [4] (setting [10]). The MIC in test [5] is 2 µg/mL (≈ 1.38 µM); in test [6] it was 0.25 µg/mL (≈ 0.173 µM); in test [7], 0.25 µg/mL (≈ 0.173 µM).
